Assay: Solubility determination of saturated solutions (shaking 24 h at 25 °C, filtration, HPLC/UPLC-UV quantification)
Assay type: physicochemical
Conditions: for log(x1)exp: 1,4-dioxane + Water, code 1 (this work)
Method: In the case of binary mixtures, the organic solvent was mixed with water in appropriate molar fractions. Water was also used as a single-component solvent. For each system, three replicate samples were prepared.
The prepared samples were placed in an Orbital Shaker ES-20/60 incubator from Biosan (Riga, Latvia) and shaken for 24 h at 25 °C. The temperature was maintained with an accuracy of ±0.1 °C. During the equilibration process, the samples were agitated at a rate of 60 rpm while being thermostated.
Following equilibration, the samples were filtered through PTFE syringe filters with a 0.22 µm pore size. To prevent precipitation during this step, all test tubes, syringes, and filters were preheated to the corresponding temperature of the solution. Subsequently, an aliquot of the filtrate was transferred to a vial for chromatographic analysis.
Prior to injection, samples were diluted with methanol and injected into a Luna C18 column (250 × 10 mm) equipped with a guard column, both from Phenomenex (Torrance, CA, USA). The injection volume was 100 µL, and the column temperature was maintained at 30 °C. The mobile phase consisted of 0.5% acetic acid (A) and acetonitrile (B), applied with a linear gradient at a flow rate of 5 mL/min: initially 2% B; 1–7 min, 2–50% B; 7–9 min, 50% B; 9–9.5 min, 50–2% B; and 9–18 min, 2% B. The UV absorbance was monitored in the range of 210–400 nm. The chromatographic system was operated with MassLynx 4.1 software (Waters, […], USA). Quantitative analysis was performed using the TargetLynx application at 293 nm. All samples were analyzed in triplicate (technical replicates).
The system included the Acquity Binary Solvent Manager, Acquity Sample Manager, and Acquity Column Manager (Waters, Milford, CT, USA). Prior to analysis, samples were diluted with methanol, and 0.3 µL was injected. Separation was performed on a ACQUITY UPLC CSH C18 column (1.7 µm, 2.1 × 30 mm, Waters, Milford, CT, USA) maintained at 40 °C. UV detection was carried out at 293 nm using a tunable dual-wavelength UV/Vis detector (TUV, Waters, Milford, CT, USA). […] Each sample was analyzed in three technical replicates.
To calculate mole fractions of the solutes, the density of each saturated solution was determined by weighing 1 mL of the sample using an analytical balance (RADWAG AS 110.R2 PLUS; Radwag, Radom, Poland).

For `O=C(O)/C=C/c1ccc(O)c(O)c1` [caffeic acid, Caffeic acid], the “log(x1)exp” value (x2* 0.00, x3* 1.00, T 25.0 °C) was -4.023, the “log(x1)exp” value (x2* 0.10, x3* 0.90, T 25.0 °C) was -2.614 and the “log(x1)exp” value (x2* 0.20, x3* 0.80, T 25.0 °C) was -1.897. For the same compound, the “log(x1)exp” value (x2* 0.30, x3* 0.70, T 25.0 °C) was -1.603, the “log(x1)exp” value (x2* 0.40, x3* 0.60, T 25.0 °C) was -1.455 and the “x1 × 102 (mole fraction of solute)” value (1,4-dioxane-water, x2* = 0.0, 25 °C) was 0.009 mole fraction × 102. For the same compound, the “x1 × 102 (mole fraction of solute)” value (1,4-dioxane-water, x2* = 0.1, 25 °C) was 0.243 mole fraction × 102, the “x1 × 102 (mole fraction of solute)” value (1,4-dioxane-water, x2* = 0.2, 25 °C) was 1.269 mole fraction × 102 and the “x1 × 102 (mole fraction of solute)” value (1,4-dioxane-water, x2* = 0.3, 25 °C) was 2.495 mole fraction × 102. The “x1 × 102 (mole fraction of solute)” value (1,4-dioxane-water, x2* = 0.4, 25 °C) was 3.504 mole fraction × 102, the “x1 × 102 (mole fraction of solute)” value (1,4-dioxane-water, x2* = 0.5, 25 °C) was 4.260 mole fraction × 102 and the “x1 × 102 (mole fraction of solute)” value (1,4-dioxane-water, x2* = 0.6, 25 °C) was 4.647 mole fraction × 102. For the same compound, the “x1 × 102 (mole fraction of solute)” value (1,4-dioxane-water, x2* = 0.7, 25 °C) was 4.698 mole fraction × 102, the “x1 × 102 (mole fraction of solute)” value (1,4-dioxane-water, x2* = 0.8, 25 °C) was 4.232 mole fraction × 102 and the “x1 × 102 (mole fraction of solute)” value (1,4-dioxane-water, x2* = 0.9, 25 °C) was 2.850 mole fraction × 102. The “x1 × 102 (mole fraction of solute)” value (1,4-dioxane-water, x2* = 1.0, 25 °C) was 1.634 mole fraction × 102, the “mole fraction solubility (x1)” value (1,4-dioxane–water, x2* = 0.0 (pure water), 25 °C) was 9.0 × 10^−5 mole fraction and the “mole fraction solubility (x1)” value (1,4-dioxane–water, x2* = 0.7, 25 °C) was 4.698 × 10^−2 mole fraction. The “x1 × 102 (mole fraction of solute)” value (4-FM-water, x2* = 0.1, 25 °C) was 0.785 mole fraction × 102, the “x1 × 102 (mole fraction of solute)” value (4-FM-water, x2* = 0.2, 25 °C) was 2.306 mole fraction × 102 and the “x1 × 102 (mole fraction of solute)” value (4-FM-water, x2* = 0.3, 25 °C) was 4.043 mole fraction × 102. For the same compound, the “x1 × 102 (mole fraction of solute)” value (4-FM-water, x2* = 0.4, 25 °C) was 6.072 mole fraction × 102, the “x1 × 102 (mole fraction of solute)” value (4-FM-water, x2* = 0.5, 25 °C) was 7.935 mole fraction × 102 and the “x1 × 102 (mole fraction of solute)” value (4-FM-water, x2* = 0.6, 25 °C) was 10.036 mole fraction × 102. The “x1 × 102 (mole fraction of solute)” value (4-FM-water, x2* = 0.7, 25 °C) was 11.977 mole fraction × 102, the “x1 × 102 (mole fraction of solute)” value (4-FM-water, x2* = 0.8, 25 °C) was 13.855 mole fraction × 102 and the “x1 × 102 (mole fraction of solute)” value (4-FM-water, x2* = 0.9, 25 °C) was 15.930 mole fraction × 102. For the same compound, the “x1 × 102 (mole fraction of solute)” value (4-FM-water, x2* = 1.0, 25 °C) was 17.932 mole fraction × 102, the “x1 × 102 (mole fraction of solute)” value (DMSO-water, x2* = 0.1, 25 °C) was 0.209 mole fraction × 102 and the “x1 × 102 (mole fraction of solute)” value (DMSO-water, x2* = 0.2, 25 °C) was 1.527 mole fraction × 102. The “x1 × 102 (mole fraction of solute)” value (DMSO-water, x2* = 0.3, 25 °C) was 4.718 mole fraction × 102, the “x1 × 102 (mole fraction of solute)” value (DMSO-water, x2* = 0.4, 25 °C) was 11.316 mole fraction × 102 and the “x1 × 102 (mole fraction of solute)” value (DMSO-water, x2* = 0.5, 25 °C) was 20.824 mole fraction × 102. The “x1 × 102 (mole fraction of solute)” value (DMSO-water, x2* = 0.6, 25 °C) was 28.915 mole fraction × 102, the “x1 × 102 (mole fraction of solute)” value (DMSO-water, x2* = 0.7, 25 °C) was 33.598 mole fraction × 102 and the “x1 × 102 (mole fraction of solute)” value (DMSO-water, x2* = 0.8, 25 °C) was 34.931 mole fraction × 102. The “x1 × 102 (mole fraction of solute)” value (DMSO-water, x2* = 0.9, 25 °C) was 31.904 mole fraction × 102, the “x1 × 102 (mole fraction of solute)” value (DMSO-water, x2* = 1.0, 25 °C) was 22.675 mole fraction × 102 and the “mole fraction solubility (x1)” value (DMSO–water, x2* = 0.8, 25 °C) was 34.931 × 10^−2 mole fraction. For the same compound, the “mole fraction solubility (x1)” value (pure 1,4-dioxane (x2* = 1.0), 25 °C) was 1.634 × 10^−2 mole fraction, the “mole fraction solubility (x1)” value (pure 4-FM (4-formylmorpholine, x2* = 1.0), 25 °C) was 17.932 × 10^−2 mole fraction and the “mole fraction solubility (x1)” value (pure DMSO, 25 °C) was 22.675 × 10^−2 mole fraction.

From PMC12655719, “Evaluating the Effectiveness of Reference Solvent Solubility Calculations for Binary Mixtures Based on Pure Solvent Solubility: The Case of Phenolic Acids” (Molecules, 2025)
